Experimental data from ChEMBL document CHEMBL2417475, “Synthesis and SAR studies of marine natural products ma'edamines A, B and their analogues” (Bioorg Med Chem Lett, 2013).

Assays:
Format in all cases: functional, cell-based
CAMA-1 = assay: Antiproliferative activity against human progesterone receptor and HER2 deficient CAMA1 cells expressing estrogen receptor after 72 hrs by MTT assay; settings: CAMA-1, 72 h
T47D = assay: Antiproliferative activity against human HER2 deficient T47D cells expressing estrogen receptor and progesterone receptor after 72 hrs by MTT assay
SK-BR-3 = assay: Antiproliferative activity against human estrogen receptor and progesterone receptor deficient SKBR3 cells expressing HER2 after 72 hrs by MTT assay; settings: SK-BR-3, 72 h

SMILES | IC50 (T47D) | IC50 (SK-BR-3) | IC50 (CAMA-1)
CNCCCOc1c(Br)cc(-c2c[nH]c(=O)c(Cc3ccccc3)n2)cc1Br | > 10 µM | > 10 µM | > 10 µM
COc1ccc(Cc2nc(-c3cc(Cl)c(OCCCN(C)C)c(Cl)c3)c[nH]c2=O)cc1Cl | > 10 µM | > 10 µM | > 10 µM
CC(C)c1nc(-c2cc(Br)c(OCCCN(C)C)c(Br)c2)c[nH]c1=O | > 10 µM | > 10 µM | > 10 µM
COc1ccc(Cc2nc(-c3cc(Br)c(OCCCN4CCOCC4)c(Br)c3)c[nH]c2=O)cc1Br | > 10 µM | > 10 µM | > 10 µM
COc1ccc(Cc2nc(-c3ccc(OCCCN4CCOCC4)cc3)c[nH]c2=O)cc1 | > 10 µM | > 10 µM | > 10 µM
COc1ccc(Cc2nc(-c3ccc(OCCCN(C)C)cc3)c[nH]c2=O)cc1 | > 10 µM | > 10 µM | > 10 µM
COc1ccc(Cc2nc(-c3cc(Br)c(OCCCCN4CCOCC4)c(Br)c3)c[nH]c2=O)cc1Br | > 10 µM | > 10 µM | > 10 µM
COc1ccc(Cc2nc(-c3cc(Br)c(OCCCCN(C)C)c(Br)c3)c[nH]c2=O)cc1Br | > 10 µM | > 10 µM | > 10 µM
COc1ccc(Cc2nc(-c3ccc(OCCCCN(C)C)cc3)c[nH]c2=O)cc1 | > 10 µM | > 10 µM | > 10 µM
CN(C)CCCOc1ccc(-c2c[nH]c(=O)c(Cc3c[nH]c4ccccc34)n2)cc1 |  | > 20 µM | > 20 µM
CNCCCOc1ccc(-c2c[nH]c(=O)c(Cc3c[nH]c4ccccc34)n2)cc1 |  | > 20 µM | > 20 µM
O=c1[nH]cc(-c2ccccc2)nc1Cc1ccccc1 | > 10 µM | > 10 µM | > 10 µM
COc1ccc(Cc2nc(-c3cc(Br)c(OCCCN(C)C)c(Br)c3)c[nH]c2=O)cc1Br [Ma'edamine A] | > 10 µM | > 10 µM | > 10 µM

Second part, led by results:

IC50 (T47D) | IC50 (SK-BR-3) | SMILES | IC50 (CAMA-1)
> 10 µM | > 10 µM | COc1ccc(Cc2nc(-c3cc(Br)c(O)c(Br)c3)cnc2Cl)cc1Br | > 10 µM
6.33 µM | 5.5 µM | CN(C)CCCOc1c(Br)cc(-c2c[nH]c(=O)c(Cc3ccccc3)n2)cc1Br | 7.1 µM
5.67 µM | 5.73 µM | COc1ccc(Cc2nc(-c3cc(Br)c(OCCN(C)C)c(Br)c3)c[nH]c2=O)cc1Br | > 10 µM
6.18 µM | 8.1 µM | CNCCOc1c(Br)cc(-c2c[nH]c(=O)c(Cc3ccc(OC)c(Br)c3)n2)cc1Br | > 10 µM
6.33 µM | 7 µM | CN(C)CCCOc1c(Br)cc(-c2c[nH]c(=O)c(Cc3c[nH]c4ccccc34)n2)cc1Br | > 10 µM
4 µM | 4.33 µM | CNCCCOc1c(Br)cc(-c2c[nH]c(=O)c(Cc3c[nH]c4ccccc34)n2)cc1Br | 5.77 µM
> 10 µM | 6 µM | CCN(CC)CCCOc1c(Br)cc(-c2c[nH]c(=O)c(Cc3ccc(OC)c(Br)c3)n2)cc1Br | 5.23 µM
4.77 µM | 5.67 µM | CN(C)CCCOc1c(Br)cc(-c2c[nH]c(=O)c(Cc3ccc(O)c(Br)c3)n2)cc1Br | 6.67 µM
> 10 µM | 5.05 µM | CS(=O)(=O)CCNCc1ccc(-c2ccc3ncnc(Nc4ccc(OCc5cccc(F)c5)c(Cl)c4)c3c2)o1 [LAPATINIB] | > 10 µM
6 µM | 4 µM | CNCCCOc1c(Br)cc(-c2c[nH]c(=O)c(Cc3ccc(OC)c(Br)c3)n2)cc1Br [Ma'edamine B] | 5.77 µM
